# Like-named read-outs stand apart in the source and are kept apart here.
# How the values were obtained:
# HCV replicon cells = test: HCV replicon FRET / luciferase assay; format: cell-based; conditions: Hepatitis C virus
# Method in brief: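 Readout was NS3 protease cleavage of an EDANS/DABCYL FRET peptide (20 μM final) in lysed HCV replicon cells, or Renilla luciferase in reporter replicons. Background came from wells with the highest level of control protease inhibitor. EC50 marked the concentration giving 50% signal reduction.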
# HCV NS5B = molecular target: T1, HCV NS5B (Hepatitis C virus genotype 1b, UniProt Q9WMX2); test: HCV NS5B RdRp enzyme assay (standard / modified); format: biochemical
# T1 construct: The protein was expressed with an 18 amino acid C-terminal truncation to enhance the solubility; made in house; host or cells: E. coli BL21 (DE3)
# T1 sequence (Q9WMX2 2420-2992): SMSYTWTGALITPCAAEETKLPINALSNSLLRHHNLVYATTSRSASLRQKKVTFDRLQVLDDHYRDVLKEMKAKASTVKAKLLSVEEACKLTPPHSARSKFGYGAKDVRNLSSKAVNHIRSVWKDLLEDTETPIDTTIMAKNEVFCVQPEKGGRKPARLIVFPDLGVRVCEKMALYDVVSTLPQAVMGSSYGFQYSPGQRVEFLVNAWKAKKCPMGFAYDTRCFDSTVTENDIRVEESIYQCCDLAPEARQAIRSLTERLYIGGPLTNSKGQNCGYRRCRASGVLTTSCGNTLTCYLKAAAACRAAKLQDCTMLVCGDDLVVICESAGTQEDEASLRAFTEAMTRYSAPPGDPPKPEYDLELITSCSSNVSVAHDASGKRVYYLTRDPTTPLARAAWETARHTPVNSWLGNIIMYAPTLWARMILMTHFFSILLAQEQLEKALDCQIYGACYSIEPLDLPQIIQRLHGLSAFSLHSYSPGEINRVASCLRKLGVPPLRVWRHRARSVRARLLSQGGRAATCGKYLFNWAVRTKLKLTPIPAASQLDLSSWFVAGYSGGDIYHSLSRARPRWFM
# Method in brief: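 SPA detection of 3H-UTP (0.29 μM) incorporation by C-terminally truncated (18 aa) genotype 1b NS5B from E. coli, on polyA/biotin-oligo-dT12 at 30° C, pH 7.5 Hepes, 2% DMSO. Modified format: 14 nM enzyme, 0.2 nM template, 20 nM primer prebound to beads, 4 h; standard: 28 nM, 6 nM, 180 nM free primer, 60 min. Seven-point IC50 fit.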
# [1] = HCV replicon cells, FRET or luciferase readout, read-out: EC50
# [2] = HCV RdRp genotype 1b enzyme, read-out: IC50
Structure (SMILES),EC50 (HCV replicon cells; [1]) [nM],IC50 (HCV NS5B; [2]) [nM],EC50 (HCV replicon cells) [nM],IC50 (HCV NS5B) [nM]
COC[C@@H]1CN(C(=O)c2cnn(C(C)C)c2C2=Cc3cc(OC)ccc3-c3c(C4CCCCC4)c4ccc(C(=O)NS(=O)(=O)CC(C)C)cc4n3C2)CCO1,1 to 500,1 to 500,–,–
CCC(C)S(=O)(=O)NC(=O)c1ccc2c(C3CCCCC3)c3n(c2c1)CC(c1c(C(=O)N2C4CCCC2COC4)cnn1C)=Cc1cc(OC)ccc1-3 (stereo not shown),–,–,1 to 500,1 to 500
COc1ccc2c(c1)C=C(c1c(C(=O)N3C[C@@H](C)O[C@@H](C)C3)ccn1C(C)C)Cn1c-2c(C2CCCCC2)c2ccc(C(=O)NS(=O)(=O)C(C)C)cc21,1 to 500,1 to 500,–,–
COc1ccc2c(c1)C=C(c1c(C(=O)N3CCOCC3)c(C)nn1C(C)C)Cn1c-2c(C2CCCCC2)c2ccc(C(=O)NS(=O)(=O)C(C)C)cc21,1 to 500,1 to 500,–,–
CCn1ncc(C(=O)N2C[C@@H]3C[C@H]2CO3)c1C1=Cc2cc(OC)ccc2-c2c(C3CCCCC3)c3ccc(C(=O)NS(=O)(=O)C(C)C)cc3n2C1,1 to 500,1 to 500,–,–
COc1ccc2c(c1)C=C(c1c(C(=O)N3CCOCC3)cnn1C(C)C)Cn1c-2c(C2CCCCC2)c2ccc(C(=O)NS(=O)(=O)N(C)C)cc21,1 to 500,1 to 500,–,–
CCOC(=O)N1CCN(C(=O)c2cnn(C)c2C2=Cc3cc(OC)ccc3-c3c(C4CCCCC4)c4ccc(C(=O)NS(=O)(=O)N5CCOCC5)cc4n3C2)CC1,1 to 500,1 to 500,–,–
CCC(C)S(=O)(=O)NC(=O)c1ccc2c(C3CCCCC3)c3n(c2c1)CC(c1c(C(=O)N2C4CCC2CN(C)C4)cnn1C)=Cc1cc(OC)ccc1-3 (stereo not shown),–,–,1 to 500,1 to 500
COc1ccc2c(c1)C=C(c1c(C(=O)N3C[C@@H](C)O[C@@H](C)C3)cnn1C)Cn1c-2c(C2CCCCC2)c2ccc(C(=O)NS(=O)(=O)CC(C)C)cc21,1 to 500,1 to 500,–,–
CCn1ncc(C(=O)N2CCOCC2)c1C1=Cc2cc(OC)ccc2-c2c(C3CCCCC3)c3ccc(C(=O)NS(=O)(=O)N(C)C)cc3n2C1,1 to 500,1 to 500,–,–
COc1ccc2c(c1)C=C(c1c(C(=O)N3C4CCC3CN(C)C4)cnn1C)Cn1c-2c(C2CCCCC2)c2ccc(C(=O)NS(=O)(=O)C(C)C)cc21,–,–,1 to 500,1 to 500
COc1ccc2c(c1)C=C(c1c(C(=O)N3CCN(C)CC3)cnn1C)Cn1c-2c(C2CCCCC2)c2ccc(C(=O)NS(=O)(=O)N3CCOCC3)cc21,1 to 500,1 to 500,–,–
CCn1ncc(C(=O)N2CCOCC2)c1C1=Cc2cc(OC)ccc2-c2c(C3CCCCC3)c3ccc(C(=O)N4CCOCC4)cc3n2C1,1 to 500,> 500,–,–
COc1ccc2c(c1)C=C(c1c(C(=O)N3CCC(N(C)C)C3)cnn1C)Cn1c-2c(C2CCCCC2)c2ccc(C(=O)NS(=O)(=O)C(C)C)cc21 (stereo not shown),1 to 500,1 to 500,–,–
COc1ccc2c(c1)C=C(c1c(C(=O)N3CCN4CCCC4C3)cnn1C)Cn1c-2c(C2CCCCC2)c2ccc(C(=O)NS(=O)(=O)C(C)C)cc21 (stereo not shown),1 to 500,1 to 500,–,–
COc1ccc2c(c1)C=C(c1c(C(=O)N3CC4CCC(C3)O4)c(C)nn1C)Cn1c-2c(C2CCCCC2)c2ccc(C(=O)NS(=O)(=O)C(C)C)cc21,1 to 500,1 to 500,–,–
COc1ccc2c(c1)C=C(c1c(C(=O)N3C4COCC3COC4)cnn1C)Cn1c-2c(C2CCCCC2)c2ccc(C(=O)NS(=O)(=O)N3CCOCC3)cc21,–,–,1 to 500,1 to 500
COc1ccc2c(c1)C=C(c1ocnc1C(=O)N1CCOCC1)Cn1c-2c(C2CCCCC2)c2ccc(C(=O)NS(=O)(=O)C3CC3)cc21,1 to 500,1 to 500,–,–
COc1ccc2c(c1)C=C(c1c(C(=O)N3C[C@@H](C)O[C@@H](C)C3)cnn1C)Cn1c-2c(C2CCCCC2)c2ccc(C(=O)NS(=O)(=O)C(C)C)cc21,1 to 500,1 to 500,–,–
COc1ccc2c(c1)C=C(c1occc1C(=O)N1C3CCC1CN(C)C3)Cn1c-2c(C2CCCCC2)c2ccc(C(=O)NS(=O)(=O)C(C)C)cc21,–,–,1 to 500,1 to 500
COC[C@@H]1CN(C(=O)c2c(C(F)(F)F)nn(C)c2C2=Cc3cc(OC)ccc3-c3c(C4CCCCC4)c4ccc(C(=O)NS(=O)(=O)C(C)C)cc4n3C2)CCO1,1 to 500,1 to 500,–,–
COc1ccc2c(c1)C=C(c1c(C(=O)N3C[C@@H](C)N(C)[C@@H](C)C3)cnn1CC(F)(F)F)Cn1c-2c(C2CCCCC2)c2ccc(C(=O)NS(=O)(=O)C(C)C)cc21,1 to 500,1 to 500,–,–
COc1ccc2c(c1)C=C(c1ocnc1C(=O)N1CCOCC1)Cn1c-2c(C2CCCCC2)c2ccc(C(=O)NS(=O)(=O)C(C)C)cc21,1 to 500,1 to 500,–,–
COc1ccc2c(c1)C=C(c1occc1C(=O)N1CCOCC1)Cn1c-2c(C2CCCCC2)c2ccc(C(=O)NS(=O)(=O)C(C)C)cc21,1 to 500,1 to 500,–,–
COc1ccc2c(c1)C=C(c1c(C(=O)N3C[C@@H](C)O[C@@H](C)C3)cnn1C(C)C)Cn1c-2c(C2CCCCC2)c2ccc(C(=O)NS(=O)(=O)CC(C)C)cc21,1 to 500,1 to 500,–,–
COc1ccc2c(c1)C=C(c1c(C(=O)N3CCN(C(C)C)CC3)cnn1C)Cn1c-2c(C2CCCCC2)c2ccc(C(=O)NS(=O)(=O)N3CCOCC3)cc21,1 to 500,1 to 500,–,–
COc1ccc2c(c1)C=C(c1c(C(=O)N3C[C@@H]4C[C@H]3CO4)cnn1C(C)C)Cn1c-2c(C2CCCCC2)c2ccc(C(=O)NS(=O)(=O)C(C)C)cc21,1 to 500,1 to 500,–,–
CCN1C[C@@H]2C[C@H]1CN2C(=O)c1cnn(CC)c1C1=Cc2cc(OC)ccc2-c2c(C3CCCCC3)c3ccc(C(=O)NS(=O)(=O)C(C)C)cc3n2C1,1 to 500,1 to 500,–,–
COc1ccc2c(c1)C=C(c1c(C(=O)N3C[C@@H](C)O[C@@H](C)C3)cnn1CC(F)(F)F)Cn1c-2c(C2CCCCC2)c2ccc(C(=O)NS(=O)(=O)C(C)C)cc21,1 to 500,1 to 500,–,–
